# Reference: patent US9125930B2, “EGFR aptamer inhibitor for use in therapy and diagnosis” (CONSIGLIO NAZIONALE DELLE RICERCHE, priority 2010, dated 2015)
# Columns and labels:
# breast SKBR3 = test: Binding on SKBR3 cells; set-up: species or system human; details: high level of EGFR; 100 nM
# Method: (§1) Binding experiments were performed with 5′-[^32P]-labeled RNA. For labeling 2′-F-Py RNAs were 5′-end dephosphorylated using bacterial alcaline phosphatase (Invitrogen, Carlsbad, Calif.) before [^32P]-5′-end-labeled using T4 kinase (Invitrogen) and γ-[^32P]-ATP (6×10^3 Ci/mmol, GE Healthcare Bio-Sciences, Uppsala, Sweden) according to the supplier's instructions.
# (§2) For binding experiments on cells, 3.5×10^4 cells were plated in 24-well plates in triplicate and were incubated with CL4 42-81 aptamer the scrambled sequence used as a negative control at 100 nM concentration in 200 μl of DMEM serum free for 20 min at RT in the presence of 100 μg/ml polyinosine as a nonspecific competitor (Sigma, St. Louis, Mo.). After five washings with 500 μl DMEM, bound sequences were recovered in 300 μl of SDS 1%, and the amount of radioactivity recovered was counted.
# STAT 3 = test: Immunoblot of EGF-induced STAT3 phosphorylation; type: cell-based, human; details: data not shown
# Method: To assess the effects of aptamers on EGFR activity, A549 cells (1.5×10^5 cells per 3.5-cm plate) were serum-starved over night, pretreated with 200 nM CL4 42-81 aptamer or the scrambled aptamer used as a negative control for 3 h and then stimulated for 30 min with 50 ng/ml EGF (R&D Systems, Minneapolis, Minn.) either alone or in presence of each aptamer. The aptamers were subjected to a short denaturation-renaturation step (85° C. for 5 min, snap-cooled on ice for 2 min, and allowed to warm up to 37° C.) before each treatment. To prepare cell extracts, cells were washed twice in ice-cold PBS, and lysed in buffer A (50 mM Tris-HCl pH 8.0 buffer containing 150 mM NaCl, 1% Nonidet P-40, 2 mg/ml aprotinin, 1 mg/ml pepstatin, 2 mg/ml leupeptin, 1 mM Na3VO4). Protein concentration was determined by the Bradford assay using bovine serum albumin as the standard. The cell lysates were subjected to SDS-PAGE. […]
# [1] = system: epidermoid carcinoma A431 cells; test: Binding on A431 cells; set-up: species or system human; details: high level of EGFR; 100 nM
# Method: as §1, §2
# EGFR = EGFR (Homo sapiens, UniProt P00533); test: Immunoblot of EGF-dependent EGFR phosphorylation in A549 cells; type: cell-based; set-up: endogenous in cells; host or cells: A549; details: 200 nM aptamer, following 5 min of EGFR stimulation
# Method: […] The aptamers were subjected to a short denaturation-renaturation step (85° C. for 5 min, snap-cooled on ice for 2 min, and allowed to warm up to 37° C.) before each treatment. To prepare cell extracts, cells were washed twice in ice-cold PBS, and lysed in buffer A (50 mM Tris-HCl pH 8.0 buffer containing 150 mM NaCl, 1% Nonidet P-40, 2 mg/ml aprotinin, 1 mg/ml pepstatin, 2 mg/ml leupeptin, 1 mM Na3VO4). Protein concentration was determined by the Bradford assay using bovine serum albumin as the standard. The cell lysates were subjected to SDS-PAGE. Gels were electroblotted into polyvinylidene difluoride membranes (Millipore Co., Bedford, Mass.), and filters were probed with the indicated primary antibodies: anti-EGFR and anti-phospho-EGFR (Tyr1062), anti-phospho-44/42 MAP kinase (E10) (also indicated as p-Erk), anti-phospho-Akt, anti-Akt and anti-phospho-STAT3 (Tyr705), anti-ErbB2 (all from Cell Signaling, Beverly, Mass., United States); anti-Erk1, anti-EGFR, anti-ErbB3, anti-ErbB4 (C-16) (Santa Cruz Biotechnology, California, United States); anti-α-αtubulin (DM 1A) (Sigma, St. Louis, Mo.).
# Proteins were visualized with peroxidase-conjugated secondary antibodies using the enhanced chemiluminescence system (GE Healthcare Bio-Sciences, Uppsala, Sweden). […]
# [2] = molecular target: T1, soluble extracellular domain of human ErbB3 (EC-ErbB3) (Homo sapiens, UniProt P21860); test: Filter binding on soluble extracellular domain of ErbB3
# T1 construct: purchased R&D Systems
# Method: as §1
# The aptamers ability to bind EGFR or ErbB3 soluble extracellular domain (EC-EGFR and EC-ErbB3) was investigated by filter binding by plotting the fraction of RNA bound to the nitrocellulose filter as a function of protein concentration, using the following equation:
# [formula] where Bmax is the extrapolated maximal amount of RNA:protein complex that will be bound. 1 nM of radiolabelled aptamers (CL4 42-81 aptamer or the scrambled sequence) were incubated with 1, 3.2, 10, 32, 100, 320 and 1000 nM of EC-EGFR and EC-ErbB3 (all from R&D Systems, Minneapolis, Minn.) for 15 min at 37° in phosphate-buffered saline (PBS) supplemented with 0.01% bovine serum albumin.
# In order to test the binding for dimeric and monomeric proteins, 1 nM of radiolabelled aptamers (CL4 42-81 or scrambled) were incubated with 20 nM of EC-EGFR and EC-ErbB3 without or with 5 mM DTT.
# After incubation, the aptamer-protein mix was passed through nitrocellulose membrane filter (Millipore Co., Bedford, Mass.) and filters were counted. […]
# T1 sequence (P21860 20-643 limits assumed): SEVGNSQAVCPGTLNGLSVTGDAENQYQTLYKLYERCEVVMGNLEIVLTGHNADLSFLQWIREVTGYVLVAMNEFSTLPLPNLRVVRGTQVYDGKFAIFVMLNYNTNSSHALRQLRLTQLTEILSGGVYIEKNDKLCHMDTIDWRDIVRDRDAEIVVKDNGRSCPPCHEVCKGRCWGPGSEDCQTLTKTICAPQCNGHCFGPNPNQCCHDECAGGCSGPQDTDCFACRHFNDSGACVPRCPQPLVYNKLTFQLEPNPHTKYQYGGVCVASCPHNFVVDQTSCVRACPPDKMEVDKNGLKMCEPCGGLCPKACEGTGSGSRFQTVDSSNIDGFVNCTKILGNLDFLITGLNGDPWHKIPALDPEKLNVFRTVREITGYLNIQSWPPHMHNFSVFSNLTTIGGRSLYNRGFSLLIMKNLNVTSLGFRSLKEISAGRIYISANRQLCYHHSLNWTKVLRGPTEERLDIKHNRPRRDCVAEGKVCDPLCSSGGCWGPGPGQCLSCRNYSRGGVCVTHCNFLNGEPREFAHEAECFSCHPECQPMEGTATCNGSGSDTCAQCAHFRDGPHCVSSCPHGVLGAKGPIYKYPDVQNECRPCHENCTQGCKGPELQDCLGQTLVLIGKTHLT
substance,measurement,setting,value
"CL4 42-81: 2′-fluoropyrimidine nuclease-resistant RNA aptamer of 39 nt: 5′ GCCUUAGUAACGUGCUUUGAUGUCGAUUCGACAGGAGGC 3′ (SEQ ID No. 1) (2'-fluoro at CU, RNA at AG, backbone not given here)",binding on SKBR3 cells,breast SKBR3,binds
same,EGF-induced phosphorylation of STAT 3,STAT 3,decreases
same,binding on A431 cells,[1],binds
same,inhibition of EGF-dependent phosphorylation of EGFR,EGFR,60%
same,"affinity for EC-ErbB3, magnitude lower",[2]; does not bind or binds with lower affinity,at least 10^3
same,Kd,"[2]; filter binding, EC-ErbB3, protein up to 1000 nM",no Kd value could be calculated
